Data on 15 compounds can be found in patent US9173882B2, “Polycyclic heteroaryl substituted triazoles useful as Axl inhibitors” (Rigel Pharmaceuticals, Inc., priority 2008, dated 2015).

Structures are written as SMILES.

Broadly, the IC50 is the concentration that inhibits the measured activity by half.

The target in this assay is T1, Axl (Homo sapiens, UniProt P30530).
T1 construct: endogenous in cells; host or cells: HeLa cells
T1 sequence (P30530 26-894): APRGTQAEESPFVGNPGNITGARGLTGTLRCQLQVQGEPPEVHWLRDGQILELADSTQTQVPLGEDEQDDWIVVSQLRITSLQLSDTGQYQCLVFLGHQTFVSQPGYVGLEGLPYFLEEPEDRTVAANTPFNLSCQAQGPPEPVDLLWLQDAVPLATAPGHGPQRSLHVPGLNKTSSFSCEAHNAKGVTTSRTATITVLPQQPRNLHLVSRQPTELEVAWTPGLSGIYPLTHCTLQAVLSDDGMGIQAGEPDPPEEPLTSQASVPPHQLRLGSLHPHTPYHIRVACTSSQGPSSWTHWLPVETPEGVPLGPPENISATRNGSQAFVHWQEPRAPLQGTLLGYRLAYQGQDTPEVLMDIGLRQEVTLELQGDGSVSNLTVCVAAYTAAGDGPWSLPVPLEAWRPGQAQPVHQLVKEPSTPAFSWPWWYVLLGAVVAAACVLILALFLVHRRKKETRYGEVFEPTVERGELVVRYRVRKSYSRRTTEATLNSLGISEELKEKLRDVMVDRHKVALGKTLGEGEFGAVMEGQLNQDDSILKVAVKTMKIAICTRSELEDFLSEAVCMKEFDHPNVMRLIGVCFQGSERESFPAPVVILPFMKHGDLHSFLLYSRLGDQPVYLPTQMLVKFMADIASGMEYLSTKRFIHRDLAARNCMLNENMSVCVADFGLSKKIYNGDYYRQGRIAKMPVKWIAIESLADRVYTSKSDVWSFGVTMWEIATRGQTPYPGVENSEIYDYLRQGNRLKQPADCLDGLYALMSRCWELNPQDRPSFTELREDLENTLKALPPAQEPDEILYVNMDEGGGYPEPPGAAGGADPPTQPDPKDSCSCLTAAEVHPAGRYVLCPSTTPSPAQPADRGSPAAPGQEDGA
The experiment in a line: Phospho-Akt in-cell Western assay. It counts as cell-based. The settings on record: Hela cells, stimulated by Axl-antibody cross-linking, phospho-Akt chemiluminescence; Table 1, formula (Ia). As to the method:
Phospho-Akt in-Cell Western Assay
The compounds of the invention were tested in the following assay for their ability to inhibit Axl activity.
• Cell culture plate: 96 well assay plate (Corning 3610), white, clear bottom, tissue-culture treated. • Cells: Hela cells. • Starvation medium: For Axl stimulation: 0.5% FCS (fetal calf serum) in DMEM, plus Axl/Fc (extracellular domain of AXL fused to imunoglobulin Fc region) (R&D, 154-AL) 500 ng/mL. • For EGF (epidermal growth factor) stimulation: 0.5% FCS in DMEM (Dulbecco's modified Eagles medium). • Poly-L-Lysine 0.01% solution (the working solution): 10 μg/ml, dilute In PBS (phosphate buffered saline). • Axl antibody cross-linking: • 1st: Mouse anti-Axl (R&D, MAB154). • 2nd: Biotin-SP-conjugated AffiniPure goat anti-mouse IgG (H+L) (Jackson ImmunoResearch #115-065-003). • Fixing buffer: 4% formaldehyde in PBS. • Wash buffer: 0.1% TritonX-100 in PBS. • Quenching buffer: 3% H2O2, 0.1% Azide in wash buffer, Azide and hydrogen peroxide (H2O2) are added fresh. • Blocking buffer: 5% BSA in TBST (tris buffered saline plus 0.1% Tween 20). • Primary antibody: Rabbit anti-human Phospho-Akt antibody (Cell Signaling 9271): 1×250 diluted in blocking buffer. • Secondary antibody: HRP (horse radish peroxidase)-conjugated Goat anti-Rabbit secondary, stock solution: Jackson ImmunoResearch (Goat anti-Rabbit HRP, #111-035-144) 1:1 diluted in glycerol, store at −20° C. The working solution: 1×2000 dilution of stock in blocking buffer. • Chemiluminescent working solution (Pierce, 37030): SuperSignal ELISA (enzyme linked immunosorbant assay) Pico Chemiluminescent substrate. • Crystal Violet solution: Stock: 2.5% Crystal violet in methanol, filtered and kept at ambient temperature. The working solution: dilute the stock 1:20 with PBS immediately before use. • 10% SDS: working solution: 5% SDS (sodium dodecylsulfate), diluted in PBS Methods: Day 1:
A 96 well TC (tissue culture treated) plate was coated with 10 μg/mL poly-L-Lysine at 37° C. for 30 min, washed twice with PBS, and air-dried for 5 minutes before cells were added. Hela cells were seeded at 10,000 cells/well and the cells were starved in 100 μL starvation medium containing Axl/Fc for 24 hrs.
The cells were pre-treated with test compounds by adding 100 μL of 2× test compound to the starvation medium on the cells. The cells were incubated at 37° C. for 1 hr before stimulation.
The cells were stimulated by Axl-antibody cross-linking as follows: A 5× 1st/2nd Axl antibody mixture was made (37.5 μg/mL 1st/100 μg/mL 2nd) in starvation medium and nutated at 4° C. with thorough mixing for 1-2 hours for clustering. The resulting mix was warmed to 37° C. 50 μL of 5× Axl 1st/2nd of antibody cluster was added to the cells and the cells were incubated at 37° C. for 5 min.
After 5 minutes stimulation, the plate was flicked to remove medium and the plate was tapped onto paper towels. Formaldehyde (4.0% in PBS, 100 μL) was added to fix the cells and the cells were incubated at ambient temperature for 20 min without shaking.
The cells were washed with a plate washer buffer to remove the formaldehyde solution. The plate was flicked to removed excess wash buffer and tapped onto paper towels. Quenching buffer (100 μL) was added to each well and the cells were incubated at ambient temperature for 20 minutes without shaking.
The cells were washed with a plate washer buffer to remove the quenching buffer. Blocking buffer (100 μL) was added and the cells were incubated at ambient temperature for at least an hour with gentle shaking.
The cells were washed with a plate washer buffer and diluted primary antibody (50 μL) was added to each well (blocking buffer was added to the negative control wells instead). The plates were incubated overnight at 4° C. with gentle shaking.
The wash buffer was removed, diluted secondary antibody (100 μL) was added, and the cells were incubated at ambient temperature for 1 hour with gentle shaking. […]
In the case of `CC(C)(C)OC(=O)N[C@H]1CCc2ccc(Nc3nc(N)n(-c4cc5c(nn4)-c4ccccc4CCC5)n3)cc2CC1` [Compound 13, 1-(6,7-dihydro-5H-benzo[6,7]cyclohepta[1,2-c]pyridazin-3-yl)-N^3-((7S)-7-(t-butoxycarbonylamino)-6,7,8,9-tetrahydro-5H-benzo[7]annulene-2-yl)-1H-1,2,4-triazole-3,5-diamine], the IC50 was more than 20 µM. As for `Nc1nc(Nc2ccc3c(c2)CCC(N2CCC[C@@H]2C(=O)O)CC3)nn1-c1cc2c(nn1)-c1ccccc1CCC2` (stereo partly drawn) [Compound 5, 1-(6,7-dihydro-5H-benzo[6,7]cyclohepta[1,2-c]pyridazin-3-yl)-N^3-(7-((2R)-2-(carboxy)pyrrolidin-1-yl)-6,7,8,9-tetrahydro-5H-benzo[7]annulene-2-yl)-1H-1,2,4-triazole-3,5-diamine], the figure is less than 1 µM; as for `CN(C)[C@H]1CCc2ccc(Nc3nc(N)n(-c4cc5c(nn4)-c4cccnc4CCC5)n3)cc2CC1` [Compound 47, 1-(6,7-dihydro-5H-pyrido[2′,3′:6,7]cyclohepta[1,2-c]pyridazin-3-yl)-N^3-((7S)-7-(dimethylamino)-6,7,8,9-tetrahydro-5H-benzo[7]annulene-2-yl)-1H-1,2,4-triazole-3,5-diamine], 1 to 10 µM. With `CCN(CC)[C@H]1CCc2ccc(Nc3nc(N)n(-c4cc5c(nn4)-c4cccnc4CCC5)n3)cc2CC1` [Compound 48, 1-(6,7-dihydro-5H-pyrido[2′,3′:6,7]cyclohepta[1,2-c]pyridazin-3-yl)-N^3-((7S)-7-(diethylamino)-6,7,8,9-tetrahydro-5H-benzo[7]annulene-2-yl)-1H-1,2,4-triazole-3,5-diamine] the figure was less than 1 µM; with `Nc1nc(Nc2ccc3c(c2)CC[C@@H](NCC2CC4C=CC2C4)CC3)nn1-c1cc2c(nn1)-c1ccccc1CCC2` (stereo partly drawn) [Compound 38, 1-(6,7-dihydro-5H-benzo[6,7]cyclohepta[1,2-c]pyridazin-3-yl)-N^3-((7S)-7-((bicyclo[2.2.1]hept-2-en-5-ylmethyl)amino)-6,7,8,9-tetrahydro-5H-benzo[7]annulene-2-yl)-1H-1,2,4-triazole-3,5-diamine], less than 1 µM; with `CN(CC(=O)O)C1CCc2ccc(Nc3nc(N)n(-c4cc5c(nn4)-c4ccccc4CCC5)n3)cc2CC1` (stereo not drawn) [Compound 8, 1-(6,7-dihydro-5H-benzo[6,7]cyclohepta[1,2-c]pyridazin-3-yl)-N^3-(7-((carboxymethyl)(methyl)amino)-6,7,8,9-tetrahydro-5H-benzo[7]annulene-2-yl)-1H-1,2,4-triazole-3,5-diamine], 1 to 10 µM. For `CCC(CC)N[C@H]1CCc2ccc(Nc3nc(N)n(-c4cc5c(nn4)-c4ccccc4CCC5)n3)cc2CC1` [Compound 33, 1-(6,7-dihydro-5H-benzo[6,7]cyclohepta[1,2-c]pyridazin-3-yl)-N^3-((7S)-7-(3-pentylamino)-6,7,8,9-tetrahydro-5H-benzo[7]annulene-2-yl)-1H-1,2,4-triazole-3,5-diamine], the IC50 was less than 1 µM. As for `CCN(CC)[C@H]1CCc2ccc(Nc3nc(N)n(-c4cc5c(nn4)-c4ccccc4CCC5)n3)cc2CC1` [Compound 20, 1-(6,7-dihydro-5H-benzo[6,7]cyclohepta[1,2-c]pyridazin-3-yl)-N^3-((7S)-7-(diethylamino)-6,7,8,9-tetrahydro-5H-benzo[7]annulene-2-yl)-1H-1,2,4-triazole-3,5-diamine], the figure is less than 1 µM. With `CC(C)N[C@H]1CCc2ccc(Nc3nc(N)n(-c4cc5c(nn4)-c4cccnc4CCC5)n3)cc2CC1` [Compound 54, 1-(6,7-dihydro-5H-pyrido[2′,3′:6,7]cyclohepta[1,2-c]pyridazin-3-yl)-N^3-((7S)-7-((methylethyl)amino)-6,7,8,9-tetrahydro-5H-benzo[7]annulene-2-yl)-1H-1,2,4-triazole-3,5-diamine] the figure was less than 1 µM.

In turn, `Nc1nc(Nc2ccc3c(c2)CC[C@@H](N)CC3)nn1-c1cc2c(nn1)-c1ccccc1CCC2` [Compound 15, 1-(6,7-dihydro-5H-benzo[6,7]cyclohepta[1,2-c]pyridazin-3-yl)-N^3-((7S)-7-amino-6,7,8,9-tetrahydro-5H-benzo[7]annulene-2-yl)-1H-1,2,4-triazole-3,5-diamine] registered an IC50 of 1 to 10 µM. As to `CC(C)CCN[C@H]1CCc2ccc(Nc3nc(N)n(-c4cc5c(nn4)-c4ccccc4CCC5)n3)cc2CC1` [Compound 39, 1-(6,7-dihydro-5H-benzo[6,7]cyclohepta[1,2-c]pyridazin-3-yl)-N^3-((7S)-7-(3-methylbutylamino)-6,7,8,9-tetrahydro-5H-benzo[7]annulene-2-yl)-1H-1,2,4-triazole-3,5-diamine], the IC50 is less than 1 µM.

For `Nc1nc(Nc2ccc3c(c2)CC[C@@H](NCC2CCCCC2)CC3)nn1-c1cc2c(nn1)-c1ccccc1CCC2` [Compound 26, 1-(6,7-dihydro-5H-benzo[6,7]cyclohepta[1,2-c]pyridazin-3-yl)-N^3-((7S)-7-((cyclohexylmethyl)amino)-6,7,8,9-tetrahydro-5H-benzo[7]annulene-2-yl)-1H-1,2,4-triazole-3,5-diamine], the IC50 is less than 1 µM. As for `CC(C)(C)CN[C@H]1CCc2ccc(Nc3nc(N)n(-c4cc5c(nn4)-c4ccccc4CCC5)n3)cc2CC1` [Compound 34, 1-(6,7-dihydro-5H-benzo[6,7]cyclohepta[1,2-c]pyridazin-3-yl)-N^3-((7S)-7-((2,2-dimethylpropyl)amino)-6,7,8,9-tetrahydro-5H-benzo[7]annulene-2-yl)-1H-1,2,4-triazole-3,5-diamine], the figure is less than 1 µM; as for `Nc1nc(Nc2ccc3c(c2)CC[C@@H](N)CC3)nn1-c1cc2c(nn1)-c1cccnc1CCC2` [Compound 46, 1-(6,7-dihydro-5H-pyrido[2′,3′:6,7]cyclohepta[1,2-c]pyridazin-3-yl)-N^3-((7S)-7-amino-6,7,8,9-tetrahydro-5H-benzo[7]annulene-2-yl)-1H-1,2,4-triazole-3,5-diamine], less than 1 µM; as for `CC(=O)NC1CCc2ccc(Nc3nc(N)n(-c4cc5c(nn4)-c4ccccc4CCC5)n3)cc2CC1` (stereo not drawn) [Compound 1, 1-(6,7-dihydro-5H-benzo[6,7]cyclohepta[1,2-c]pyridazin-3-yl)-N^3-(7-(acetamido)-6,7,8,9-tetrahydro-5H-benzo[7]annulene-2-yl)-1H-1,2,4-triazole-3,5-diamine], less than 1 µM.
